These results are taken from paper PMC5441103, “Antiviral activity of phenanthrenes from the medicinal plant Bletilla striata against influenza A virus” (BMC Complementary and Alternative Medicine, 2017).

One data set deals with neuraminidase (NA) (Influenza A virus, UniProt Q80DL0). The conditions noted are these: for IC50: read-out: NA inhibitory activity IC50.
In data set [1] the test system is influenza A/Sydney/5/97 (H3N2).
For the next data set, the system named is MDCK cells. Put plainly: Cytotoxicity to MDCK cells (MTS-based assay). The conditions noted are these: 48 h, read-out: CC50 (50% cytotoxic concentration). The format is cell-based, canine. As to the method:
(§1) An MTS-based assay was performed to evaluate the cytotoxic effects of the test compounds on MDCK cells. Approximately 5 × 10^4 cells/well were seeded in 96-well microplates in MEM with 10% FBS at 37 °C in a humidified 5% CO2 incubator. When the monolayer was confluent, the cells were washed twice with PBS and then treated with compounds diluted in serum-free MEM. After incubation at 37 °C for 48 h, 20 μL of MTS was added to each well, and the cells were incubated for 2 h. The absorbance at 490 nm was determined using a microplate reader. The cell viability was calculated using the following formula: cell viability (%) = (drug treatment – background)/(control – background) × 100%. The half-maximal cytotoxic concentration (CC50) of the compounds was defined as the concentration that reduced the A490 of compound-treated cells to 50% of that of untreated cells.
Background: Tetrazolium assays rely on reduction of a dye to a coloured formazan, in cell work by metabolically active cells.

For data set [2], the system named is influenza viral matrix protein mRNA. The format is cell-based, influenza virus.
Data set [3] relates to influenza A/Sydney/5/97 (H3N2). Put plainly: in vitro. The conditions noted are these: dog, MDCK cells.
For data set [4], the system named is influenza A/Sydney/5/97 (H3N2). The experiment in a line: microbe, parasite or virus in culture. The conditions noted are these: H3N2, MDCK.
Data set [5] deals with influenza virus A/Sydney/5/97 (H3N2). The format is in vivo. The conditions noted are these: for -log2 HA titer (mean ± SD): 9-day-old embryonated hen eggs, 100 EID50, 34 °C 48 h, allantoic fluid.
Data set [6] in a line: Cytotoxicity to MDCK cells (MTS-based assay). The conditions noted are these: dog, read-out: CC50 (50% cytotoxic concentration). The format is cell-based, canine. On the procedure: as §1
The next data set has as its system hemagglutinin (HA). Put plainly: Hemagglutination inhibition assay (guinea pig RBC). The conditions noted are these: 4 HAU virus, 1.5% guinea pig RBC.
Where [7] appears, read: read-out: Simultaneous treatment IC50.
[8] abbreviates: Post-treatment SI (selective index; CC50mean/IC50mean), post-treatment.
[9] abbreviates: Simultaneous treatment SI (selective index; CC50mean/IC50mean), simultaneous treatment.
[10] abbreviates: 72 h, read-out: Simultaneous treatment IC50.

Where “and” joins values, the source holds several entries; their conditions need not be identical. Equal entries are not always repeated. Where two headings read alike, the source gives them in different places.

Procedure for hemagglutinin (HA): The hemagglutination inhibition assay was used to study whether the compound could block the SA-containing receptors. The phenanthrenes from B. striata and oseltamivir phosphate were all tested Fresh guinea pig blood was collected at the Laboratory Animal Research Center of the Zhejiang Chinese Medical University, supplemented with 1.6% sodium citrate in sterile water. Then, red blood cells (RBC) were separated by centrifugation (800×g for 10 min at room temperature), washed three times with sterile PBS, and then suspended at a concentration of 1.5%. The least number of virus particles able to agglutinate the guinea pig RBC was determined in a serial virus dilution as four hemagglutination units (HAU). PBS instead of the compounds was used as the hemagglutinating positive control and no-virus RBC as the hemagglutinating negative control. Then, 50 μL of the compounds in serial twofold dilutions in PBS were mixed with 50 μL of 4 HAU influenza virus suspension, incubated for 1 h at 37 °C, mixed with an equal volume of 1.5% guinea pig RBC suspension for 1 h at room temperature, and then monitored for agglutination [10, 11].
Procedure for neuraminidase (NA): The neuraminidase inhibition assay was used to evaluate the effects of each compound on the neuraminidase activity of the influenza virus, according to the instructions of the Neuraminidase Inhibitors Screen Kit (Beyotime, China). Inhibition = [(C− S) / (C − C 0)] × 100%, where C is the fluorescence of the control (enzyme, buffer, and substrate) after 30 min of incubation, and C 0 is the fluorescence of the control (buffer and substrate). S is the fluorescence of the tested samples (enzyme, sample solution, and substrate) after incubation. Standard curves were made by plotting the percentage of fluorescence inhibition relative to the activity of virus controls against the log2 of concentrations. In addition, 10 μg/mL oseltamivir phosphate was used as the positive control. Then, 10 μL of NA in 70 μL of reaction buffer was mixed with equal volumes of twofold dilutions of the compounds. After a 2-min incubation at 37 °C, equal volumes (10 μL) of the substrate solution [2-(4-methylumbelliferyl)-α-D-N-acetylneuraminic acid sodium (4-MU-NANA)] were added, and the mixtures were further incubated for 30 min at 37 °C. The fluorescence intensity was measured using a fluorescence plate reader at an excitation wavelength of 322 nm and an emission wavelength of 450 nm. The 50% inhibitory concentration (IC50) was calculated by regression analysis with r ^2 ≥ 0.9, representing the mean values of three independent experiments [13, 29].

Regarding `COc1cc(O)c2c(ccc3cc(O)ccc32)c1-c1c(OC)cc(O)c2c1ccc1cc(O)ccc12` [Compound 6, 4,4′,7,7′-tetrahydroxy-2,2′-dimethoxy-1,1′-di-phenanthrene], the figures for the IC50 (at neuraminidase (NA); in data set [1] (read-out: Post-treatment IC50); in data set [1] (setting [7])) were 16.1 ± 2.6 µM, 37.3 ± 3.2 µM and 33.8 ± 2.7 µM, respectively. For the same molecule, the “Post-treatment SI (selective index; CC50mean/IC50mean)” value in data set [1] came out at 2.8. Further, the “Simultaneous treatment SI (selective index; CC50mean/IC50mean)” value in data set [1] is reported as 3.1. In the data set with MDCK cells, the CC50 was found to be 106 ± 21.2 µM. In [2], the “Matrix protein mRNA transcription (normalized to GAPDH)” value is recorded as “stronger inhibitory effect”.

Consider `CCOC(=O)C1=C[C@@H](OC(CC)CC)[C@H](NC(C)=O)[C@@H](N)C1` [Oseltamivir, reference compound], for which the figures for the selectivity ratio at 72 h in data set [3] (setting [8]) and in data set [3] (setting [9]) were 665 and 122, respectively. For the same molecule, the IC50 – broadly, the concentration that gives 50% inhibition – in data set [4] (setting [10]) was determined as 4.9 ± 0.9 µM; in data set [4] (read-out: Post-treatment IC50) it was 0.9 ± 0.2 µM. For the same molecule, the “-log2 HA titer (mean ± SD)” value in [5] (0.01 mmol/egg) is listed as 0.00 ± 0.00. Besides, the “Inhibition (%)” value in data set [5] (0.01 mmol/egg, embryonated hen eggs, 100 EID50, 48 h) stood at 100.00%. In data set [6], the CC50 at 48 h worked out at 599 ± 62.1 µM. Besides, the “Inhibition of hemagglutination by the influenza virus” value in the data set with hemagglutinin (HA) was “could not inhibit hemagglutination”.

As to `COc1cc(O)cc2c1-c1ccc(O)cc1CC2` [Compound 1, 2,7-dyhydroxyl-4-methoxy-9,10-dihydro-phenanthrene], the IC50 on neuraminidase (NA) was 72.6 ± 6.5 µM. In data set [1], the “Post-treatment IC50” value is reported as “- (The results showed that antiviral effects against A/Sydney/5/97(H3N2) were less than 50% inhibition)” and the “Simultaneous treatment IC50” value is given as “- (The results showed that antiviral effects against A/Sydney/5/97(H3N2) were less than 50% inhibition)”. For the same molecule, in the data set on MDCK cells, the CC50 was 201 ± 18.6 µM. The “Matrix protein mRNA transcription (normalized to GAPDH)” value in data set [2] was “stronger inhibitory effect”.

For the molecule `COc1ccc2c(ccc3c(-c4c(O)cc(OC)c5c4CCc4cc(O)ccc4-5)c(O)cc(OC)c32)c1` [Compound 2, 2,2,7′-trihydroxy-4,4′,7-trimethoxy-9′,10′-dihydro-1,1′-diphenanthrene], the “NA inhibitory activity IC50” value on neuraminidase (NA) was “- (key: -: Inhibitory effect on the NA was less than 50%.)”. Further, in [1], the “Post-treatment SI (selective index; CC50mean/IC50mean)” value came to 2.2 and the “Simultaneous treatment SI (selective index; CC50mean/IC50mean)” value came to 2.3. The IC50 in data set [1] (read-out: Post-treatment IC50) is 31.4 ± 2.1 µM. The IC50 in data set [1] (setting [7]) was 28.6 ± 4.3 µM. In addition, the CC50 in the data set on MDCK cells was 67.9 ± 13.1 µM. Also, the “Matrix protein mRNA transcription (normalized to GAPDH)” value in [2] is reported as “stronger inhibitory effect”.

Take `COc1cc(O)c2c(ccc3cc(O)ccc32)c1-c1c(OC)cc(O)c2c1ccc1c(OC)cccc12` [Compound 5, 4,4′,7′-trihydroxy-2,2′,8,-trimethoxy-1,1′-di-phenanthrene]: on neuraminidase (NA), the “NA inhibitory activity IC50” value is recorded as “- (key: -: Inhibitory effect on the NA was less than 50%.)”. For the same molecule, the “Inhibition (%)” value in data set [5] (in vivo) is 0.00% and 6.90% and 3.45%. Moreover, in data set [1], the “Post-treatment IC50” value is listed as “- (The results showed that antiviral effects against A/Sydney/5/97(H3N2) were less than 50% inhibition)” and the “Simultaneous treatment IC50” value is given as “- (The results showed that antiviral effects against A/Sydney/5/97(H3N2) were less than 50% inhibition)”. Besides, in the data set on MDCK cells, the CC50 is 96.8 ± 15.6 µM.

Consider `COc1cc(O)cc2ccc3cc(O)ccc3c12` [Compound 12, 2,7-dyhydroxyl-4-methoxyphenanthrene], for which the “NA inhibitory activity IC50” value on neuraminidase (NA) was “- (key: -: Inhibitory effect on the NA was less than 50%.)”. Moreover, in data set [1], the “Post-treatment IC50” value is “- (The results showed that antiviral effects against A/Sydney/5/97(H3N2) were less than 50% inhibition)” and the “Simultaneous treatment IC50” value was “- (The results showed that antiviral effects against A/Sydney/5/97(H3N2) were less than 50% inhibition)”. Also, in the data set with MDCK cells, the CC50 was determined as 116 ± 16.8 µM.

Turning to `COc1cc(O)c2c(c1)CCc1cccc(O)c1-2` [Compound 9, 4,5-dyhydroxyl-2-methoxy-9,10-dihydro-phenanthrene], the “NA inhibitory activity IC50” value at neuraminidase (NA) is on record as “- (key: -: Inhibitory effect on the NA was less than 50%.)”. In addition, in data set [1], the “Post-treatment IC50” value was “- (The results showed that antiviral effects against A/Sydney/5/97(H3N2) were less than 50% inhibition)” and the “Simultaneous treatment IC50” value is listed as “- (The results showed that antiviral effects against A/Sydney/5/97(H3N2) were less than 50% inhibition)”. In addition, the CC50 in the data set with MDCK cells turned out to be 160 ± 20.4 µM. The “Matrix protein mRNA transcription (normalized to GAPDH)” value in data set [2] is reported as “stronger inhibitory effect”.

With `COc1cc(O)c2c(ccc3cc(O)ccc32)c1-c1c(OC)cc(O)c2c1ccc1c(OC)c(O)ccc12` [Compound 8, 4,4′,7,7′-tetrahydroxy-2,2′,8-trimethoxy-1,1′-di-phenanthrene], the “NA inhibitory activity IC50” value at neuraminidase (NA) is listed as “- (key: -: Inhibitory effect on the NA was less than 50%.)”. In [1], the “Post-treatment IC50” value was “- (The results showed that antiviral effects against A/Sydney/5/97(H3N2) were less than 50% inhibition)” and the “Simultaneous treatment IC50” value is given as “- (The results showed that antiviral effects against A/Sydney/5/97(H3N2) were less than 50% inhibition)”. Moreover, the CC50 with MDCK cells stood at 111 ± 17.3 µM.

In the case of `COc1ccc2c(ccc3c(-c4c(O)c(OC)cc5c4CCc4cc(O)cc(OC)c4-5)c(O)cc(OC)c32)c1` [Compound 3, 2,2′,7′-trihydroxy-3′,4,5′,7-tetramethoxy-9′,10′-dihydro-1,1′-di-phenanthrene], the IC50 on neuraminidase (NA) amounted to 16.8 ± 1.6 µM; in data set [1] (read-out: Post-treatment IC50), 22.6 ± 1.8 µM; in data set [1] (setting [7]), 20.4 ± 3.2 µM. For the same molecule, the “Post-treatment SI (selective index; CC50mean/IC50mean)” value in data set [1] came to 2.2. In [1], the “Simultaneous treatment SI (selective index; CC50mean/IC50mean)” value came to 2.5. The CC50 with MDCK cells is 50.3 ± 6.2 µM. In data set [2], the “Matrix protein mRNA transcription (normalized to GAPDH)” value is “stronger inhibitory effect”.

Consider `COc1ccc2c(ccc3cc(O)cc(OC)c32)c1` [Compound 10, 2-hydroxyl-4,7-dimethoxyphenanthrene], for which the figures for the selectivity ratio at 72 h in data set [3] (setting [8]) and in data set [3] (setting [9]) were 3.4 and 3.3, respectively. Further, the IC50 in [4] (setting [10]) turned out to be 43.3 ± 5.3 µM; in data set [4] (read-out: Post-treatment IC50) it was 42.3 ± 3.9 µM. Moreover, the “-log2 HA titer (mean ± SD)” value in [5] (0.04 mmol/egg) amounted to 6.00 ± 0.71; in data set [5] (0.08 mmol/egg) it was 3.20 ± 0.40. Moreover, the “Inhibition (%)” value in data set [5] (0.04 mmol/egg, embryonated hen eggs, 100 EID50, 48 h) was 0.00%; in data set [5] (0.08 mmol/egg, embryonated hen eggs, 100 EID50, 48 h), 44.8% and 44.83%. The CC50 at 48 h in data set [6] was determined as 142 ± 25 µM. Also, in data set [2], the “Matrix protein mRNA transcription (normalized to GAPDH)” value was “stronger inhibitory effect”.

For the molecule `COc1ccc2c(ccc3c(-c4c(OC)cc(O)c5c4ccc4cc(O)ccc45)c(OC)cc(O)c32)c1` [Compound 7, 4,4′,7-trihydroxy-2,2′,7′-trimethoxy-1,1′-di-phenanthrene], the “NA inhibitory activity IC50” value on neuraminidase (NA) is listed as “- (key: -: Inhibitory effect on the NA was less than 50%.)”. The “Inhibition (%)” value in [5] (in vivo) is given as 0.00%. Further, in data set [1], the “Post-treatment SI (selective index; CC50mean/IC50mean)” value turned out to be 4.1 and the “Simultaneous treatment SI (selective index; CC50mean/IC50mean)” value turned out to be 4.5. Further, the IC50 in [1] (read-out: Post-treatment IC50) came to 31.2 ± 2.2 µM. Moreover, the IC50 in [1] (setting [7]) turned out to be 28.5 ± 2.8 µM. Also, the CC50 in the data set with MDCK cells worked out at 130 ± 15.6 µM. The “Matrix protein mRNA transcription (normalized to GAPDH)” value in [2] is “stronger inhibitory effect”.

As for `COc1cc(O)c2c(ccc3c(OC)c(O)ccc32)c1-c1c(OC)cc(O)c2c1ccc1c(OC)c(O)ccc12` [Compound 4, 4,4′,7,7′-tetrahydroxy-2,2′,8,8′-tetramethoxy-1,1′-di-phenanthrene], the values for the IC50 (on neuraminidase (NA); in [1] (read-out: Post-treatment IC50); in data set [1] (setting [7])) were 21.7 ± 2.9 µM, 18.4 ± 3.1 µM and 14.6 ± 2.4 µM, respectively. Besides, the “Post-treatment SI (selective index; CC50mean/IC50mean)” value in [1] was found to be 4.3. Besides, the “Simultaneous treatment SI (selective index; CC50mean/IC50mean)” value in data set [1] came out at 5.5. Moreover, the CC50 in the data set on MDCK cells was found to be 80 ± 20.1 µM. Moreover, the “Matrix protein mRNA transcription (normalized to GAPDH)” value in data set [2] is given as “most efficient, even more powerful than oseltamivir”.

“2,2′–dyhydroxyl-4,4′,7,7′-9′,10′-dihydro-1,6′-di-phenanthrene [Compound 11]”: in [5] (in vivo), the “Inhibition (%)” value is listed as 0.00%. For the same molecule, the IC50 is 35.2 ± 3.7 µM in [1] (read-out: Post-treatment IC50) and 38.6 ± 2.9 µM in data set [1] (setting [7]). The “Matrix protein mRNA transcription (normalized to GAPDH)” value in [2] is listed as “stronger inhibitory effect”.
